From US12568967B2, “Compositions comprising pyridine carboxylate herbicides with synthetic auxin herbicides or auxin transport inhibitors” (priority 2018, dated 2026)

Experiments:
[1] = system: Brassica napus (winter rape, BRSNW); test: Greenhouse postemergence trial BRSNW; format: in vivo; settings: Brassica napus, post-emergence, BRSNW; Halauxifen-methyl 3 g/ha; read-out: % visual injury Obs
Description: (§1) Seeds of the desired test plant species were planted in a 90:10% v/v (volume/volume) mixture of PRO-MIX® BX (Premier Tech Horticulture, Quakertown, PA, USA) and PROFILE® GREENS GRADE™ (Profile Products LLC, Buffalo Grove, IL, USA) planting mixture, which typically has a pH of 5.2 to 6.2 and an organic matter content of at least 50 percent, in plastic pots with a surface area of 103.2 square centimeters (cm^2). […] The plants were grown for 7-36 days (d) in a greenhouse with an approximate 14-hour (h) photo-period which was maintained at about 23° C. during the day and 22° C. during the night. Nutrients and water were added on a regular basis and supplemental lighting was provided with overhead metal halide 1000-Watt lamps as necessary. The plants were employed for testing when they reached the second or third true leaf stage.
(§2) Emulsifiable concentrates of each of each pyridine carboxylate herbicide (Compound A or Compound B) were prepared at 100 grams acid equivalent per liter (g ae/L). The emulsifiable concentrates also included a safener, cloquintocet-mexyl, at 120 grams active ingredient per liter (g ai/L), unless otherwise noted below. An aliquot of each emulsifiable concentrate was placed in a 25 mL glass vial and diluted with an aqueous mixture of 1.25% (v/v) ACTIROB® B esterified rapeseed oil (Bayer Crop Science, Research Triangle Park, NC, USA) or MSO® Concentrate with LECI-TECH® methylated soybean oil (Loveland Products, Loveland, CO, USA) to obtain concentrated stock solutions at the highest application rate for each herbicide, based upon a 12 milliliter (mL) application volume at a rate of 187 liters per hectare (L/ha). The concentrated stock solutions were further diluted with an aqueous mixture of 1.25% v/v ACTIROB® B or MSO® Concentrate with LECI-TECH® to obtain stock solutions at reduced application rates for each herbicide. Spray solutions of the herbicide combinations (Compound A or Compound B plus synthetic auxin herbicide or auxin transport inhibitor) were prepared by adding weighed amounts or aliquots of the synthetic auxin herbicide or auxin transport inhibitor to the stock solutions of Compound A or Compound B to form 12-mL spray solutions in two-way combinations.
(§3) The spray solutions were applied to the plant material with an overhead Mandel track sprayer equipped with 8002E nozzles calibrated to deliver 187 L/ha over an application area of 0.503 square meters (m^2) at a spray height of 18 inches (43 centimeters (cm)) above the average plant canopy. Control plants were sprayed in the same manner with the solvent blank. All pyridine carboxylate herbicide (component a) application rates are given as “g ae/ha” and all synthetic auxin herbicide or auxin transport inhibitor (component b) application rates are given as “g ai/ha.”
(§4) The treated plants and control plants were placed in a greenhouse as described above and watered by sub-irrigation to prevent wash-off of the test compounds. After 20-22 d, the condition of the test plants as compared with that of the control plants was determined visually and scored on a scale of 0 to 100 percent where 0 corresponds to no injury and 100 corresponds to complete kill.

[2] = system: Polygonum convolvulus (wild buckwheat, POLCO); test: Greenhouse postemergence trial POLCO; format: in vivo; settings: Fallopia convolvulus, post-emergence; POLCO; Halauxifen-methyl 3 g/ha; read-out: % visual injury Obs
[3] = system: Cirsium arvense (Canadian thistle, CIRAR); test: Greenhouse postemergence trial CIRAR; format: in vivo; settings: Cirsium arvense, post-emergence; CIRAR; Halauxifen-methyl 3 g/ha; read-out: % visual injury Obs
[4] = system: Sinapis arvensis (wild mustard, SINAR); test: Greenhouse postemergence trial SINAR; format: in vivo; settings: Mutarda arvensis, post-emergence; SINAR; Halauxifen-methyl 3 g/ha; read-out: % visual injury Obs
Description: (§5) The plants were grown for 7-36 days (d) in a greenhouse with an approximate 14-hour (h) photo-period which was maintained at about 23° C. during the day and 22° C. during the night. Nutrients and water were added on a regular basis and supplemental lighting was provided with overhead metal halide 1000-Watt lamps as necessary. The plants were employed for testing when they reached the second or third true leaf stage.
(§6) The emulsifiable concentrates also included a safener, cloquintocet-mexyl, at 120 grams active ingredient per liter (g ai/L), unless otherwise noted below.
(§7) Control plants were sprayed in the same manner with the solvent blank. All pyridine carboxylate herbicide (component a) application rates are given as “g ae/ha” and all synthetic auxin herbicide or auxin transport inhibitor (component b) application rates are given as “g ai/ha.”
as §4

[5] = system: Salsola kali (Russian thistle, SASKR); test: Greenhouse postemergence trial SASKR; format: in vivo; settings: Salsola kali, post-emergence; SASKR; Halauxifen-methyl 3 g/ha; read-out: % visual injury Obs;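 further: greenhouse plants sprayed at second or third true leaf stage, injury rated by eye after 20-22 d against solvent-blank controls, 0 meaning no injury, 100 complete kill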
Description: as §5, §6, §7, §4

[6] = system: Kochia scoparia (kochia, KCHSC); test: Greenhouse postemergence trial KCHSC; format: in vivo; settings: Bassia scoparia, post-emergence; KCHSC; Halauxifen-methyl 3 g/ha; read-out: % visual injury Obs
[7] = system: Matricaria chamomilla (wild chamomile, MATCH); test: Greenhouse postemergence trial MATCH; format: in vivo; settings: Matricaria chamomilla, post-emergence; MATCH; Halauxifen-methyl 3 g/ha; read-out: % visual injury Obs;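 further: greenhouse plants sprayed at second to third true leaf stage, injury rated by eye 20-22 d later versus solvent-blank controls on 0–100 scale, 0 no injury, 100 complete kill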
Description: as §5, §6, §7, §4

[8] = system: Triticum aestivum (spring wheat, TRZAS); format: in vivo
Description: as §1, §2, §3, §4

[9] = system: Hordeum vulgare (spring barley, HORVS); format: in vivo
Description: as §1, §2, §3, §4

[10] = system: Cyanus segetum (cornflower, CENCY); test: Greenhouse postemergence trial CENCY; format: in vivo
Description: as §1, §2, §3, §4

[11] = system: Viola arvensis (field violet, VIOAR); test: Greenhouse postemergence trial VIOAR; format: in vivo
[12] = system: Galium aparine (cleavers, GALAP); test: Greenhouse postemergence trial GALAP; format: in vivo; settings: c1-3 Compound A 7.5/10/15; c4 Halauxifen-methyl 6; c5-7 A 7.5/10/15 + Halauxifen-methyl 6 g/ha
Description: as §1, §2, §3, §4

[13] = system: Veronica hederifolia (ivyleaf speedwell, VERHE); test: Greenhouse postemergence trial VERHE; format: in vivo
[14] = system: Papaver rhoeas (corn poppy, PAPRH); test: Greenhouse postemergence trial PAPRH; format: in vivo
[15] = system: Veronica persica (bird's-eye speedwell, VERPE); test: Greenhouse postemergence trial VERPE; format: in vivo
[16] = system: Papaver rhoeas (corn poppy), herbicide-resistant (PAPRH-R); test: Greenhouse postemergence trial PAPRH-R; format: in vivo
[17] = system: Capsella bursa-pastoris (shepherd's purse, CAPBP); test: Greenhouse postemergence trial CAPBP; format: in vivo
[18] = system: Stellaria media (chickweed, STEME); test: Greenhouse postemergence trial STEME; format: in vivo
[19] = system: Anthemis arvensis (field chamomile, ANTAR); test: Greenhouse postemergence trial ANTAR; format: in vivo
[20] = system: Matricaria discoidea (pineapple weed, MATMT); test: Greenhouse postemergence trial MATMT; format: in vivo
Description: as §1, §2, §3, §4

[21] = system: Matricaria inodora (false chamomile, MATIN); test: Greenhouse postemergence trial MATIN; format: in vivo
[22] = system: Triticum aestivum (winter wheat, TRZAW); test: Greenhouse postemergence crop phytotoxicity TRZAW; format: in vivo
[23] = system: Hordeum vulgare (winter barley, HORVW); test: Greenhouse postemergence crop phytotoxicity HORVW; format: in vivo
[24] = system: Lamium purpureum (purple deadnettle, LAMPU); test: Greenhouse postemergence trial LAMPU
Description: as §5, §6, §7, §4

[25] = system: Viola tricolor (wild pansy, VIOTR); test: Greenhouse postemergence trial VIOTR;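 further: greenhouse plants sprayed at second to third true leaf stage, injury rated visually after 20-22 d against solvent-blank sprayed controls, 0 meaning no injury and 100 complete kill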
Description: as §1, §2, §3, §4

[26] = c1-3 Compound A 7.5/10/15, c4 Halauxifen-methyl 6, c5-7 A 7.5/10/15 + Halauxifen-methyl 6 g/ha

## COC(=O)c1nc(-c2ccc(Cl)c(OC)c2F)cc(N)c1Cl [Halauxifen-methyl, halauxifen-methyl, reference compound]
[1]
  plant injury at 3 g/ha: 30%
[2]
  pest or weed control at 3 g/ha: 80%
[3]
  pest or weed control at 3 g/ha: 65%
[4]
  pest or weed control at 3 g/ha: 70%
[5]
  pest or weed control at 3 g/ha: 50%
[6]
  pest or weed control at 3 g/ha: 50%
[7]
  pest or weed control at 3 g/ha: 10%
[8]; TRZAS, Halauxifen-methyl 3 g/ha
  % visual injury Obs: 0%
[8]; [26]
  % visual injury (crop phytotoxicity): 0%
[9]; HORVS, Halauxifen-methyl 3 g/ha
  % visual injury Obs: 0%
[9]; [26]
  % visual injury (crop phytotoxicity): 0%
[10]; Centaurea cyanus, post-emergence, CENCY, Halauxifen-methyl 3 g/ha, read-out: % visual injury Obs
  pest or weed control at 3 g/ha: 90%
[10]; [26]
  % visual injury: 97%
[11]; Viola arvensis, post-emergence, VIOAR, Halauxifen-methyl 3 g/ha, read-out: % visual injury Obs
  pest or weed control at 3 g/ha: 10%
[11]; [26]
  % visual injury: 5%
[12]
  % visual injury: 95%
[13]; Veronica hederifolia, post-emergence, VERHE, Halauxifen-methyl 3 g/ha, read-out: % visual injury Obs
  pest or weed control at 3 g/ha: 10%
[13]; [26]
  % visual injury: 10%
[14]; Papaver rhoeas, post-emergence, PAPRH, Halauxifen-methyl 3 g/ha, read-out: % visual injury Obs
  pest or weed control at 3 g/ha: 70%
[14]; [26]
  % visual injury: 70%
[15]; Veronica persica, post-emergence, VERVE, Halauxifen-methyl 3 g/ha, read-out: % visual injury Obs
  pest or weed control at 3 g/ha: 20%
[15]; [26]
  % visual injury: 10%
[16]; Papaver rhoeas, post-emergence, PAPRH-R, Halauxifen-methyl 3 g/ha, read-out: % visual injury Obs
  pest or weed control at 3 g/ha: 65%
[16]; [26]
  % visual injury: 60%
[17]; Capsella bursa-pastoris, post-emergence, CAPBP, Halauxifen-methyl 3 g/ha, read-out: % visual injury Obs
  pest or weed control at 3 g/ha: 75%
[17]; [26]
  % visual injury: 70%
[18]; Stellaria media, post-emergence, STEME, Halauxifen-methyl 3 g/ha, read-out: % visual injury Obs
  pest or weed control at 3 g/ha: 30%
[18]; [26]
  % visual injury: 65%
[19]; Anthemis arvensis, post-emergence, ANTAR, Halauxifen-methyl 3 g/ha, read-out: % visual injury Obs
  pest or weed control at 3 g/ha: 50%
[19]; [26]
  % visual injury: 40%
[20]; Matricaria discoidea, post-emergence, MATMT, Halauxifen-methyl 3 g/ha, read-out: % visual injury Obs
  pest or weed control at 3 g/ha: 0%
[20]; [26]
  % visual injury: 65%
[21]; Tripleurospermum inodorum, post-emergence, MATIN, Halauxifen-methyl 3 g/ha, read-out: % visual injury Obs
  pest or weed control at 3 g/ha: 0%
[21]; [26]
  % visual injury: 10%
[22]; TRZAW, Halauxifen-methyl 3 g/ha
  % visual injury Obs: 0%
[22]; [26]
  % visual injury (crop phytotoxicity): 0%
[23]; HORVW, Halauxifen-methyl 3 g/ha
  % visual injury Obs: 0%
[23]; [26]
  % visual injury (crop phytotoxicity): 0%
[24]; Lamium purpureum, post-emergence, read-out: % visual injury Obs
  pest or weed control at 3 g/ha: 97%
[24]; [26]
  % visual injury: 85%
[25]; Viola tricolor, post-emergence, read-out: % visual injury Obs
  pest or weed control at 3 g/ha: 60%
[25]; [26]
  % visual injury: 10%
